In patent US20230301981A1, “TLR7/8 ANTAGONISTS AND USES THEREOF” (Merck Patent GmbH, priority 2020, published 2023) one finds IC50 data, which are given here for four compounds.

What all share (assay type): cell-based
Experiment [1] addresses T1, TLR7 (Homo sapiens, UniProt Q9NYK1).
T1 sequence (Q9NYK1 27-1049): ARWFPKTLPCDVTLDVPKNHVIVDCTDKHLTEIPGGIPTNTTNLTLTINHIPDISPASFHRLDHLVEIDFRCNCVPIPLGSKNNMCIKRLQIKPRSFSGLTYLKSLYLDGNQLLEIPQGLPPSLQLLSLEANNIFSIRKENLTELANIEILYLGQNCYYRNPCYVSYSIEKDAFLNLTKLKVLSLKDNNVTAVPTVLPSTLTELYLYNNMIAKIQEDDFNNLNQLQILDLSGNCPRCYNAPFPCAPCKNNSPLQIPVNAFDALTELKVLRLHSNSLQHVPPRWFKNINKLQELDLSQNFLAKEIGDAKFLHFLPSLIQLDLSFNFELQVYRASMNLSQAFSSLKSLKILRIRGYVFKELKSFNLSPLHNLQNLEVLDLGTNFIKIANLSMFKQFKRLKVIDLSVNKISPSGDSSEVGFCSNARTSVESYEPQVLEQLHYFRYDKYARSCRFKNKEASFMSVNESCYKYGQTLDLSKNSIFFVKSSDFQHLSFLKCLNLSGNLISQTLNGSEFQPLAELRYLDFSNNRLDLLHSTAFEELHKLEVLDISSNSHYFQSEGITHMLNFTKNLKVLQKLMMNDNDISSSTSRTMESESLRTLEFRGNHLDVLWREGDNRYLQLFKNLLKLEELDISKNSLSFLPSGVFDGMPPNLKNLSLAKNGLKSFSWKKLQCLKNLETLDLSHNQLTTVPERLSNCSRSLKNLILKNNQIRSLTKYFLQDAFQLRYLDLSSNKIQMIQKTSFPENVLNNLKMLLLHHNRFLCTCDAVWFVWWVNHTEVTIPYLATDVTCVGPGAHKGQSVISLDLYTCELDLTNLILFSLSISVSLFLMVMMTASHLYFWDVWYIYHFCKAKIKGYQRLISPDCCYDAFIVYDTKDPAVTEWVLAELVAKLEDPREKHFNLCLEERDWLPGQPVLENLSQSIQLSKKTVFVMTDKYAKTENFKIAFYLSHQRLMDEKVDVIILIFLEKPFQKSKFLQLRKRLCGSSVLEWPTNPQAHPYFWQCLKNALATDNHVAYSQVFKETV
Description: HEK293 TLR7/NFKb reporter cell assay with R848 agonist. The arrangement: expressed in transfected cells; host or cells: HEK293. As for the experimental part:
Into 384 CulturePlates (Corning 3707) was placed 5000 c/w of HEK293 TLR7/NFKb reporter cells in 30 µL DMEM without phenol red and 10% i.a. FCS and 2 mM L-glutamine. The cells were incubated for 24 h at 37° C., 10% carbon dioxide and 90% relative humidity. 3 µL of controls, standards, and compounds were dispensed to wells, incubated for 30 min then 3 µL of R848 agonist (Resiquimod) in 20 mM HEPES buffer was added. After incubation for 5 hours, it was allowed to stand at room temperature for 15 min. 10 µL of Steady-Glo substrate reagent was added and assay plates were shaken for 5 min at 1500 rpm. The assay plate was allowed to sit for 30 min at room temperature and then read on an EnVision plate reader.

Experiment [2] addresses T1, TLR7. Kind of experiment: Human whole blood assay, TLR7-specific agonist stimulation, IL-6 by AlphaLISA. The arrangement: Human whole blood from healthy donors was drawn into EDTA Vacutainer tubes; endogenous in cells; host or cells: human whole blood (healthy donors). As to conditions: TLR7-specific agonist 3 µM, IL-6 readout, read-out: IC50 TLR7 (IL6 READOUT) HUMAN WHOLE BLOOD (N=2). The procedure: (§1) Human whole blood from healthy donors was drawn into EDTA Vacutainer tubes and the experiment started within 2 hr of draw. Four parts blood was diluted with 1 part PBS. 10 mM compounds stock solutions were serially diluted 1:3 eleven times in DMSO. Each serial dilution was further diluted by transferring 3 µl to 100 µl RPMI. For the stimulation only and no stimulation controls, 3 µl 100% DMSO was transferred to 100 µl RPMI. Then, 5 µl of each of these dilutions were transferred to 96-well tissue culture grade U-bottom plate in triplicate for each ligand and each donor. Final inhibitor concentrations were 10, 3.3, 1.1, 0.37, 0.12, 0.04, 0.014, 0.0046, 0.0015, 0.00051, 0.00017, 0.00006 µM. No inhibitor (stimulation only) controls were included in triplicate for each donor. Diluted blood was dispensed on top of inhibitor dilutions at 150 µl/well. Plates were incubated at 37° C. 5% CO2 for 30 min. For TLR7 stimulation, 10 mM stock of a TLR7-specific small molecule agonist in DMSO was diluted to 90 µM in RPMI and 5 µl were added to each inhibitor dilution for each donor. Final concentration was 3 µM. For TLR8 stimulation, 10 mM stock of a TLR8-specific small molecule agonist in DMSO was diluted to 15 µM in RPMI and 5 µl were added to each inhibitor dilution for each donor. Final concentration was 0.5 µM. No stimulation controls were included in triplicate for each donor. Plates were incubated at 37° C. 5% CO2 overnight. Next day, plasma was collected and IL-6 was measured by AlphaLISA (PerkinElmer AL223 according to manufacturer’s protocol.

Experiment [3] addresses T2, TLR8 (Homo sapiens, UniProt Q9NR97).
T2 construct: Human whole blood from healthy donors was drawn into EDTA Vacutainer tubes; endogenous in cells; host or cells: human whole blood (healthy donors)
T2 sequence (Q9NR97 27-1041): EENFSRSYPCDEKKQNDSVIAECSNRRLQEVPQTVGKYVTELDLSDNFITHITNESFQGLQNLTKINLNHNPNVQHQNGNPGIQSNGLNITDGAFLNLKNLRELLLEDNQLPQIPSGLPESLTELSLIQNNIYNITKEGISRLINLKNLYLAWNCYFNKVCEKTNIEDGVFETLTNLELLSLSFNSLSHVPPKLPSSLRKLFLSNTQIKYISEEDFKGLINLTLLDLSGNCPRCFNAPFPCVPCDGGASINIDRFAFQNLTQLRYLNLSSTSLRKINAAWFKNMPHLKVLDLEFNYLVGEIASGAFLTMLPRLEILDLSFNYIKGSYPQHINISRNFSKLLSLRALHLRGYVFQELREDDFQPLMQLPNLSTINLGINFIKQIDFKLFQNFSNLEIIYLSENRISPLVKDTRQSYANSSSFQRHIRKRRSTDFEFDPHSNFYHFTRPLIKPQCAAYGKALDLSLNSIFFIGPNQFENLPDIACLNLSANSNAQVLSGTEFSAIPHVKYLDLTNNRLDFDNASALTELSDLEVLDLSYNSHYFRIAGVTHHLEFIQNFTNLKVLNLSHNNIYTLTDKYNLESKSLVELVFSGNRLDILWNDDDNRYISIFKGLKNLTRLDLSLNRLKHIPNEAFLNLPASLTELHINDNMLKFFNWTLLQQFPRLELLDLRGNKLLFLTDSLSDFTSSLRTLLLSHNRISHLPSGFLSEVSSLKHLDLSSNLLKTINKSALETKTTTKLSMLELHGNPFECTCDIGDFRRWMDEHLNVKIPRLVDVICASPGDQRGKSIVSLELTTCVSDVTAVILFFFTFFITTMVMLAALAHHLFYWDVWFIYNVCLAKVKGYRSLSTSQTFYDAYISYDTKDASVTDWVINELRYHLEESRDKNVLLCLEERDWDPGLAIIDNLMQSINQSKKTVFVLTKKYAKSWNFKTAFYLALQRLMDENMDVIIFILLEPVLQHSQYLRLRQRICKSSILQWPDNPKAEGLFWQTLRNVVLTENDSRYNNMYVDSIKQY
Kind of experiment: Human whole blood assay, TLR8-specific agonist stimulation, IL-6 by AlphaLISA. As to conditions: TLR8-specific agonist 0.5 µM, IL-6 readout, read-out: IC50 TLR8 (IL6 READOUT) HUMAN WHOLE BLOOD (N=2). As for the experimental part: as §1
A general note: Bead proximity is the source of the signal in Alpha formats.

Setting [4] is: HEK293 TLR7/NFKb reporter cells, R848 agonist, read-out: IC50 TLR7 (IL6 READOUT) HEK TRANSFECTED
The mark [5] stands for this setting: Example 4 results table, assay/readout not specified, read-out: Potency.

SMILES strings stand for the structures.

As for `CCN(CC)Cc1cc(Nc2ccnc3cc(Cl)ccc23)ccc1O` [AMODIAQUINE], the IC50 in experiment [1] (setting [4]) is > 10 µM.
With `CCN(CC)CCCC(C)Nc1ccnc2cc(Cl)ccc12` (stereo not shown) [CHLOROQUINE, Chloroquine], the IC50 was found to be 2.28 µM in experiment [2] and 53.3 µM in experiment [3].
As to `CCN(CC)Cc1cc(Nc2ccnc3cc(Cl)ccc23)cc(CN(CC)CC)c1O` [Compound 2, CYCLOQUINE], the IC50 was < 1 µM in experiment [1] (setting [5]) and 1.39 µM in experiment [1] (setting [4]).
The matching figures for `Oc1c(CN2CCCC2)cc(Nc2ccnc3cc(Cl)ccc23)cc1CN1CCCC1` [Compound 3, BISPYROQUINE]: < 1 µM and 4.59 µM.
